Measured values from US9777008B2, “PRMT5 inhibitors and uses thereof” (Epizyme, Inc., priority 2012, dated 2017).

Biological target: PRMT5/MEP50 (Homo sapiens (Human), UniProt O14744)
Experiment: PRMT5 Biochemical Assay (PRMT5/MEP50 enzyme assay on peptide substrate, 3H-SAM Flashplate)
Description: S-adenosylmethionine (SAM), S-adenosylhomocysteine (SAH), bicine, KCl, Tween20, dimethylsulfoxide (DMSO), bovine skin gelatin (BSG), and Tris(2-carboxyethyl)phosphine hydrochloride solution (TCEP) were purchased from Sigma-Aldrich at the highest level of purity possible. ^3H-SAM was purchase from American Radiolabeled Chemicals with a specific activity of 80 Ci/mmol. 384-well streptavidin Flashplates were purchased from PerkinElmer.
Peptide representative of human histone H4 residues 1-15 was synthesized with a C-terminal linker-affinity tag motif and a C-terminal amide cap by 21st Century Biochemicals. The peptide was high high-performance liquid chromatography (HPLC) purified to greater than 95% purity and confirmed by liquid chromatography mass spectrometry (LC-MS). The sequence was Ac-[…][K-Biot]-amide (SEQ ID NO.:3).
Molecular Biology: Full-length human PRMT5 (NM_006109.3) transcript variant 1 clone was amplified from a fetal brain cDNA library, incorporating flanking 5′ sequence encoding a FLAG tag ([…]) (SEQ ID NO.:4) fused directly to Ala 2 of PRMT5. Full-length human MEP50 (NM_024102) clone was amplified from a human testis cDNA library incorporating a 5′ sequence encoding a 6-histidine tag (MHHHHHH) (SEQ ID NO.:5) fused directly to Arg 2 of MEP50. The amplified genes were sublconed into pENTR/D/TEV (Life Technologies) and subsequently transferred by Gateway™ attL×attR recombination to pDEST8 baculvirus expression vector (Life Technologies).
Recombinant baculovirus and Baculovirus-Infected Insect Cells (BIIC) were generated according to Bac-to-Bac kit instructions (Life Technologies) and Wasilko, 2006, respectively. Protein over-expression was accomplished by infecting exponentially growing Spodoptera frugiperda (SF9) cell culture at 1.2×10^6 cell/ml with a 5000 fold dilution of BIIC stock. Infections were carried out at 27° C. for 72 hours, harvested by centrifugation, and stored at −80° C. for purification.
Flag-PRMT5/6His-MeP50 was eluted with 300 mM Imidazole in the same buffer. The purity of recovered protein was 87%. Reference: Wasilko, D. J. and S. E. Lee: “TIPS: titerless infected-cells preservation and scale-up” Bioprocess J., 5 (2006), pp. 29-32.
General Procedure for PRMT5/MEP50 Enzyme Assays on Peptide Substrates.
The assays were all performed in a buffer consisting of 20 mM Bicine (pH=7.6), 1 mM TCEP, 0.005% BSG, and 0.002% Tween20, prepared on the day of use. Compounds in 100% DMSO (1 ul) were spotted into a polypropylene 384-well V-bottom plates (Greiner) using a Platemate Plus outfitted with a 384-channel head (Thermo Scientific). DMSO (1 ul) was added to Columns 11, 12, 23, 24, rows A-H for the maximum signal control and 1 ul of SAH, a known product and inhibitor of PRMT5/MEP50, was added to columns 11, 12, 23, 24, rows I-P for the minimum signal control. A cocktail (40 ul) containing the PRMT5/MEP50 enzyme and the peptide was added by Multidrop Combi (Thermo-Fisher). The compounds were allowed to incubate with PRMT5/MEP50 for 30 min at 25 degrees Celsius, then a cocktail (10 ul) containing ^3H-SAM was added to initiate the reaction (final volume=51 ul). The final concentrations of the components were as follows: PRMT5/MEP50 was 4 nM, ^3H-SAM was 75 nM, peptide was 40 nM, SAH in the minimum signal control wells was 100 uM, and the DMSO concentration was 1%. The assays were stopped by the addition of non-radioactive SAM (10 ul) to a final concentration of 600 uM, which dilutes the ^3H-SAM to a level where its incorporation into the peptide substrate is no longer detectable. 50 ul of the reaction in the 384-well polypropylene plate was then transferred to a 384-well Flashplate and the biotinylated peptides were allowed to bind to the streptavidin surface for at least 1 hour before being washed three times with 0.1% Tween20 in a Biotek ELx405 plate washer. […]

Chain of PRMT5/MEP50 (O14744 other isoform, or with tags, fused parts or gaps): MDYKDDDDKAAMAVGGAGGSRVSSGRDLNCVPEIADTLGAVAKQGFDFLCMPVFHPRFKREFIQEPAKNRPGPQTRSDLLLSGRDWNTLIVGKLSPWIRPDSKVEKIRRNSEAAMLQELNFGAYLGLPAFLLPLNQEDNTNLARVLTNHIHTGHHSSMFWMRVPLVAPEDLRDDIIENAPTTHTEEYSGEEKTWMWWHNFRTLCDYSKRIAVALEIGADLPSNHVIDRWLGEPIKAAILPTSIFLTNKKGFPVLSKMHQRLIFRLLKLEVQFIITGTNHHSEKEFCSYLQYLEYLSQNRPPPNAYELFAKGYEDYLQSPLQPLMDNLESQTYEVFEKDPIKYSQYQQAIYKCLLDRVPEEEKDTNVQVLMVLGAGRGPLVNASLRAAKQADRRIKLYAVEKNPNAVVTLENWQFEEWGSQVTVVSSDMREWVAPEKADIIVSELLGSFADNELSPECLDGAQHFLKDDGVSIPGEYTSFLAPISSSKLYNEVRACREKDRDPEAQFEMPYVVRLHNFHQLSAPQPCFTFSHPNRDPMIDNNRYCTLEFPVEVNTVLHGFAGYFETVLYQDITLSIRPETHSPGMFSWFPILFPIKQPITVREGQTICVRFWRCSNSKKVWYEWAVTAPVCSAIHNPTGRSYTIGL
Chain of PRMT5/MEP50 (Q9BQA1 other isoform, or with tags, fused parts or gaps partner): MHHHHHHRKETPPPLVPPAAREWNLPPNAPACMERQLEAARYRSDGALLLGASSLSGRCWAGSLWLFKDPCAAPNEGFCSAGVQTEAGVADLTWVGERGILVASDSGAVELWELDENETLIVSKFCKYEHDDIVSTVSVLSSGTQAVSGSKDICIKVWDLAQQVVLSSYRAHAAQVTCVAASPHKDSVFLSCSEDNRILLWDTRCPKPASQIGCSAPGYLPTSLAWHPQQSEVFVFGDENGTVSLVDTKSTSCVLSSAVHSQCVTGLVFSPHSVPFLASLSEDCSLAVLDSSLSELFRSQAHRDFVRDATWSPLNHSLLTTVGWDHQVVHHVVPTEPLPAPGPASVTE

In the case of `O[C@H](COc1cccc(CNC2CCCC2)c1)CN1CCc2ccccc2C1` [Compound 22], the IC50 is reported as 101 to 1000 nM.
With `O[C@@H](COc1cccc(CNC2CCCC2)c1)CN1CCc2ccccc2C1` [Compound 23] the IC50 was 1000 to 10000 nM.
`COc1cc2c(cc1OC)CN(CC(O)COc1cccc(CNC3CCCC3)c1)CC2` (centres unmarked) [Compound 30] was tested, and the IC50 was > 40000 nM.
Compound `COc1ccc(Cn2nccc2-c2ccc(OC[C@H](O)CN3CCc4ccccc4C3)cc2)cc1` [Compound 37] has an IC50 of 1000 to 10000 nM.
For `COc1ccc(Cn2nccc2-c2ccc(OC[C@@H](O)CN3CCc4ccccc4C3)cc2)cc1` [Compound 38], the IC50 was > 40000 nM.
With `COc1ccc(Cn2ccc(-c3ccc(OC[C@H](O)CN4CCc5ccccc5C4)cc3)n2)cc1` [Compound 41] the IC50 was 1000 to 10000 nM.
`COc1ccc(Cn2ccc(-c3ccc(OC[C@@H](O)CN4CCc5ccccc5C4)cc3)n2)cc1` [Compound 42] gave an IC50 of 10000 to 40000 nM.
For `Cn1cnc2ccc(-c3cccc(OCC(O)CN4CCc5ccccc5C4)c3)cc21` (centres unmarked) [Compound 45, 1-(3,4-dihydroisoquinolin-2(1H)-yl)-3-(3-(1-methyl-1H-benzo[d]imidazol-6-yl)phenoxy)propan-2-ol], the IC50 was < 100 nM.
`OC(COc1ccc(C2CCCNC2)cc1)CN1CCc2ccccc2C1` (centres unmarked) [Compound 47] was tested, and the IC50 was < 100 nM.
In the case of `CC1Cc2ccccc2CN1CC(O)COc1cccc(CNC2CCCC2)c1` (centres unmarked) [Compound 51], the IC50 is reported as > 40000 nM.
`COc1cccc2c1CCN(CC(O)COc1cccc(CNC3CCCC3)c1)C2` (centres unmarked) [Compound 54] was tested, and the IC50 was > 40000 nM.
With `CC1CN(CC(O)COc2cccc(CNC3CCCC3)c2)Cc2ccccc21` (centres unmarked) [Compound 56] the IC50 was > 40000 nM.
With `CN(C)S(=O)(=O)c1cccc(-c2cccc(OCC(O)CN3CCc4ccccc4C3)c2)c1` (centres unmarked) [Compound 61] the IC50 was > 40000 nM.
For `OC(COc1cccc(-c2cccc3cccnc23)c1)CN1CCc2ccccc2C1` (centres unmarked) [Compound 65, 1-(3,4-dihydroisoquinolin-2(1H)-yl)-3-(3-(quinolin-8-yl)phenoxy)propan-2-ol], the IC50 was < 100 nM.
For `Cn1cnc2ccc(-c3cccc(NCC(O)CN4CCc5ccccc5C4)c3)cc21` (centres unmarked) [Compound 102, 1-(3,4-dihydroisoquinolin-2(1H)-yl)-3-((3-(1-methyl-1H-benzo[d]imidazol-6-yl)phenyl)amino)propan-2-ol], the IC50 was < 100 nM.
In the case of `OC(COc1cccc(-c2ccc3ncn(Cc4ccccc4)c3c2)c1)CN1CCc2ccccc2C1` (centres unmarked) [Compound 105, 1-(3-(1-benzyl-1H-benzo[d]imidazol-6-yl)phenoxy)-3-(3,4-dihydroisoquinolin-2(1H)-yl)propan-2-ol], the IC50 is reported as < 100 nM.
With `Cn1ncc2ccc(-c3cccc(OCC(O)CN4CCc5ccccc5C4)c3)cc21` (centres unmarked) [Compound 106] the IC50 was < 100 nM.
In the case of `Cn1ncc2cc(-c3cccc(OCC(O)CN4CCc5ccccc5C4)c3)ccc21` (centres unmarked) [Compound 108], the IC50 is reported as < 100 nM.
For `CN(CC(O)CN1CCc2ccccc2C1)c1cccc(CNC2CCOCC2)c1` (centres unmarked) [Compound 116], the IC50 was < 100 nM.
`Cn1cnc2ccc(-c3ccnc(NCC(O)CN4CCc5ccccc5C4)c3)cc21` (centres unmarked) [Compound 118, 1-(3,4-Dihydroisoquinolin-2(1H)-yl)-3-((4-(1-methyl-1H-benzo[d]imidazol-6-yl)pyridin-2-yl)amino)propan-2-ol] was tested, and the IC50 was < 100 nM.
`OC(COc1cccc(-c2ccc3ncsc3c2)c1)CN1CCc2ccccc2C1` (centres unmarked) [Compound 123, 1-(3-(benzo[d]thiazol-6-yl)phenoxy)-3-(3,4-dihydroisoquinolin-2(1H)-yl)propan-2-ol] was tested, and the IC50 was 101 to 1000 nM.
For `Cn1ccc2cnc(-c3cccc(OCC(O)CN4CCc5ccccc5C4)c3)nc21` (centres unmarked) [Compound 141, 1-(3,4-dihydroisoquinolin-2(1H)-yl)-3-(3-(7-methyl-7H-pyrrolo[2,3-d]pyrimidin-2-yl)phenoxy)propan-2-ol], the IC50 was < 100 nM.
For `Cn1cnc2ccc(-c3cccc(OCC(O)CN4CCc5ccccc5C4Cc4ccccc4)c3)cc21` (centres unmarked) [Compound 143], the IC50 was > 40000 nM.
`COc1cc2c(cc1OC)CN(CC(O)COc1cccc(-c3ccc4ncn(C)c4c3)c1)CC2` (centres unmarked) [Compound 146] was tested, and the IC50 was > 40000 nM.
With `Cn1cnc2ccc(-c3cccc(OC[C@@H](O)CN4CCc5ccccc5C4)c3)cc21` [Compound 173] the IC50 was 101 to 1000 nM.
For `Cn1cnc2ccc(-c3cccc(OC[C@H](O)CN4CCc5ccccc5C4)c3)cc21` [Compound 174], the IC50 was < 100 nM.
In the case of `Cn1ccc2ccc(-c3cccc(OCC(O)CN4CCc5ccccc5C4)c3)nc21` (centres unmarked) [Compound 176, 1-(3,4-dihydroisoquinolin-2(1H)-yl)-3-(3-(1-methyl-1H-pyrrolo[2,3-b]pyridin-6-yl)phenoxy)propan-2-ol], the IC50 is reported as < 100 nM.
In the case of `Cn1cnc2ccc(-c3cccc(OCC(O)CN4CCc5ccccc5C4COc4ccccc4)c3)cc21` (centres unmarked) [Compound 178], the IC50 is reported as > 40000 nM.
In the case of `Cn1cnc2ccc(-c3cccc(OCC(O)CN4CCc5ccccc5C4)c3)nc21` (centres unmarked) [Compound 189, 1-(3,4-dihydroisoquinolin-2(1H)-yl)-3-(3-(3-methyl-3H-imidazo[4,5-b]pyridin-5-yl)phenoxy)propan-2-ol], the IC50 is reported as < 100 nM.
For `CCOC(=O)C1c2ccccc2CCN1CC(O)COc1cccc(-c2ccc3ncn(C)c3c2)c1` (centres unmarked) [Compound 193], the IC50 was > 40000 nM.
For `Cn1cnc2ccc(-c3cncc(NCC(O)CN4CCc5ccccc5C4)c3)cc21` (centres unmarked) [Compound 199], the IC50 was < 100 nM.
For `Cn1cnc2ccc(-c3cccc(OCC(O)CN4CCc5ccccc5C4CC(N)=O)c3)cc21` (centres unmarked) [Compound 202], the IC50 was > 40000 nM.
For `OC(COc1cccc(-c2ccc3ncn(C4CCNC4)c3c2)c1)CN1CCc2ccccc2C1` (centres unmarked) [Compound 209, 1-(3,4-dihydroisoquinolin-2(1H)-yl)-3-(3-(1-(pyrrolidin-3-yl)-1H-benzo[d]imidazol-6-yl)phenoxy)propan-2-ol], the IC50 was < 100 nM.
`Cn1cc2ccc(-c3cccc(OCC(O)CN4CCc5ccccc5C4)c3)nc2n1` (centres unmarked) [Compound 210, 1-(3,4-dihydroisoquinolin-2(1H)-yl)-3-(3-(2-methyl-2H-pyrazolo[3,4-b]pyridin-6-yl)phenoxy)propan-2-ol] was tested, and the IC50 was < 100 nM.
With `CN1CC(n2cnc3ccc(-c4cccc(OCC(O)CN5CCc6ccccc6C5)c4)cc32)C1` (centres unmarked) [Compound 218, 1-(3,4-dihydroisoquinolin-2(1H)-yl)-3-(3-(1-(1-methylazetidin-3-yl)-1H-benzo[d]imidazol-6-yl)phenoxy)propan-2-ol] the IC50 was < 100 nM.
In the case of `CN1CCC(n2cnc3ccc(-c4cccc(OCC(O)CN5CCc6ccccc6C5)c4)cc32)C1` (centres unmarked) [Compound 219], the IC50 is reported as < 100 nM.
`OC(COc1cccc(-c2ccc3ncn(C4CCNCC4)c3c2)c1)CN1CCc2ccccc2C1` (centres unmarked) [Compound 220] was tested, and the IC50 was < 100 nM.
In the case of `CN1CCC(n2cnc3ccc(-c4cccc(OCC(O)CN5CCc6ccccc6C5)c4)cc32)CC1` (centres unmarked) [Compound 221], the IC50 is reported as < 100 nM.
For `OC(COc1cccc(-c2cccc3[nH]cnc23)c1)CN1CCc2ccccc2C1` (centres unmarked) [Compound 223, 1-(3-(1H-benzo[d]imidazol-4-yl)phenoxy)-3-(3,4-dihydroisoquinolin-2(1H)-yl)propan-2-ol], the IC50 was < 100 nM.
In the case of `Cn1cnc2ccc(-c3cccc(OCC(O)CN4CCc5ccccc5C4=O)c3)cc21` (centres unmarked) [Compound 225], the IC50 is reported as > 40000 nM.
For `Cn1ncc2ccc(-c3ccnc(NCC(O)CN4CCc5ccccc5C4)c3)cc21` (centres unmarked) [Compound 226], the IC50 was < 100 nM.
In the case of `Cn1ccc2ccc(-c3ccnc(NCC(O)CN4CCc5ccccc5C4)c3)cc21` (centres unmarked) [Compound 227], the IC50 is reported as < 100 nM.
For `OC(CNc1cc(-c2ccc3ncn(C4CNC4)c3c2)ccn1)CN1CCc2ccccc2C1` (centres unmarked) [Compound 229], the IC50 was < 100 nM.
For `CN1CC(n2cnc3ccc(-c4ccnc(NCC(O)CN5CCc6ccccc6C5)c4)cc32)C1` (centres unmarked) [Compound 230], the IC50 was < 100 nM.
